For test [1], the target named is T1, YF CE (Yellow fever virus, UniProt P03314). The format is binding, yellow fever virus (strain 17D).
The target of test [2] is T1, YF CE.
Another test deals with T2, DEN2 CE (Dengue virus type 2, UniProt P29990).
T2 sequence (P29990 2493-2755 limits assumed): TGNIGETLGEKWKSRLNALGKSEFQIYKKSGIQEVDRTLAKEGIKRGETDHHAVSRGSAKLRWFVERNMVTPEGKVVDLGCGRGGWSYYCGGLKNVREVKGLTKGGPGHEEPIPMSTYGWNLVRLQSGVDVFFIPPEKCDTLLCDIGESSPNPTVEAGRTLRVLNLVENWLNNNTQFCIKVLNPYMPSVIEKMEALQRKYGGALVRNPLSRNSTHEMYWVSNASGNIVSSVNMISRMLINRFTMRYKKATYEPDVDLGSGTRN
The test is classed as binding, dengue virus 2 (strain 16681).

The next test concerns the target T3, DEN CE (Dengue virus type 2, UniProt P29990).
T3 sequence (P29990 2493-2755 limits assumed): T2 sequence (P29990 2493-2755 limits assumed)
The test is classed as biochemical.

The target of the next test is CE protein (YF or DEN). The following applies: read-out: Ki for the displacement of GTP–BODIPY; competition assay; cited from earlier work.

Several values for one entry are separate records, joined by “and”; a condition that tells them apart may be missing. Identical values can stand only once. Like-named read-outs stand apart in the source and are kept apart here.

T1 sequence (P03314 2507-2771 limits assumed): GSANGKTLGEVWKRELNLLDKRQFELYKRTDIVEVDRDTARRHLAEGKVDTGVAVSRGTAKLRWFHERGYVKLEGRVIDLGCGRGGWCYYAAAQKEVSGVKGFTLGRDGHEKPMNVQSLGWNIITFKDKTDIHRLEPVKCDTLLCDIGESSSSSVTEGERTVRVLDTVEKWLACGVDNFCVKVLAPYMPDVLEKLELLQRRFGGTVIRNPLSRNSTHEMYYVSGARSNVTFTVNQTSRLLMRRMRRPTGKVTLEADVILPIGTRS

What is called IC50 is the point on the concentration scale where inhibition reaches its midpoint. `Cc1ccc(C)n1C(Cc1c[nH]c2ccccc12)C(=O)O` (stereo not drawn) [BAS 01211690]: on YF CE [1], the “Percent Inhibition HTS” value turned out to be 23%. Besides, the Ki at YF CE [2] (read-out: apparent Ki, FP, YF) was 5.8 ± 0.5 µM; on YF CE [2] (read-out: apparent Ki, TF, YF) it was 5.8 ± 1.7 µM; at DEN2 CE (read-out: apparent Ki, FP, DEN), 10.1 ± 1.3 µM; at DEN2 CE (read-out: apparent Ki, TF, DEN), 9.1 ± 2.5 µM. Moreover, at DEN CE, the “inhibition of guanylation (in words)” value was “weaker inhibition of guanylation”. Besides, the IC50 on DEN CE (read-out: Guanylation IC50 DEN) came to 78.9 ± 37.8 µM.
As to `Nc1ncnc2c1ncn2[C@@H]1O[C@H](COP(=O)(O)OP(=O)(O)OP(=O)(O)O)[C@@H](O)[C@H]1O` [adenosine triphosphate (ATP), adenosine triphosphate], the Ki on CE protein (YF or DEN) is 350 µM.
Take `Nc1nc2c(ncn2[C@@H]2O[C@H](COP(=O)(O)OP(=O)(O)OP(=O)(O)O)[C@@H](O)[C@H]2O)c(=O)[nH]1` [GTP, guanosine triphosphate, reference compound]: at YF CE [1], the “average mP value of inhibition” value was 42.4 ± 5.19 mP and 81.8 ± 6.09 mP. Also, the Ki on CE protein (YF or DEN) was 0.04 µM.
On to `COC(=O)[n+]1ccc(N2CCOCC2)cc1` [BAS01531218], for which the “Percent Inhibition HTS” value on YF CE [1] turned out to be 12%. For the same molecule, the Ki at YF CE [2] (read-out: apparent Ki, FP, YF) was determined as 4.9 ± 1 µM; on YF CE [2] (read-out: apparent Ki, TF, YF) it was 6.2 ± 1.4 µM; at DEN2 CE (read-out: apparent Ki, FP, DEN), 4.8 ± 1.5 µM; at DEN2 CE (read-out: apparent Ki, TF, DEN), 2.6 ± 0.5 µM.

Source of the values: publication PMC3532936 (Journal of biomolecular screening, 2011).
